Source: US12252524B2, “GIP/GLP1 co-agonist compounds” (Eli Lilly and Company, priority 2018, dated 2025)
Read-outs that look alike come from different tables or passages of the source. Numbered stars: 1 amine (or outer) side, 2 acyl side, 3 side chain; on linkers, the order of the positions; unused ones are H or OH. Square brackets hold non-standard residues; d marks the D form. Side chains are listed from the residue outwards. Peptide text beside a SMILES is read from it. * marks the point of attachment. C20 diacid = O=C(O)CCCCCCCCCCCCCCCCCCC(=O)*; C18 diacid = O=C(O)CCCCCCCCCCCCCCCCC(=O)*; αMePhe(2-F) = C[C@](N)(Cc1ccccc1F)C(=O)O; γGlu = O=C(O)[C@H](CCC(=O)[*:2])N[*:1]; αMeL = CC(C)C[C@](C)(N)C(=O)O; Orn = NCCC[C@H](N)C(=O)O; AEEA = NCCOCCOCC(=O)O; Aib = CC(C)(N)C(=O)O

Legend:
human GIP receptor = molecular target: T1, human GIP receptor (Homo sapiens, UniProt P48546); test: [125I]-GIP binding (SPA), human GIP receptor
T1 construct: expressed in transfected cells; crude membranes
T1 sequence (P48546 22-466): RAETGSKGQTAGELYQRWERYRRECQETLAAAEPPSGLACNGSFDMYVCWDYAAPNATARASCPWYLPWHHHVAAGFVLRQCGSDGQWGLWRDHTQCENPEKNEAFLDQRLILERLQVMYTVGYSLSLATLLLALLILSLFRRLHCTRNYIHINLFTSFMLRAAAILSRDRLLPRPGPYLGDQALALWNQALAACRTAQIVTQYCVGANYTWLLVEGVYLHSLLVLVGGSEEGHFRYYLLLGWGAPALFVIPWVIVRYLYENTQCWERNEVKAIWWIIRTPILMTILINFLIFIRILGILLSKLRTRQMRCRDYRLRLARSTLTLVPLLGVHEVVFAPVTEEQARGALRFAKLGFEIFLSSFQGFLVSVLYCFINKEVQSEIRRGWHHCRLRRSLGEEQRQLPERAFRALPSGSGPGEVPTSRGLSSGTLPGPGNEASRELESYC

human GLP-1R [1] = molecular target: T2, human GLP-1R (Homo sapiens, UniProt P43220); test: GLP-1R CHO cell β-arrestin recruitment assay; format: cell-based; design: host or cells: CHO-K1 PathHunter cells, assay-ready frozen; conditions: for hGLP1R B-Arrestin2 % Top: normalized to GLP-1 maximum control
T2 sequence (P43220 24-463): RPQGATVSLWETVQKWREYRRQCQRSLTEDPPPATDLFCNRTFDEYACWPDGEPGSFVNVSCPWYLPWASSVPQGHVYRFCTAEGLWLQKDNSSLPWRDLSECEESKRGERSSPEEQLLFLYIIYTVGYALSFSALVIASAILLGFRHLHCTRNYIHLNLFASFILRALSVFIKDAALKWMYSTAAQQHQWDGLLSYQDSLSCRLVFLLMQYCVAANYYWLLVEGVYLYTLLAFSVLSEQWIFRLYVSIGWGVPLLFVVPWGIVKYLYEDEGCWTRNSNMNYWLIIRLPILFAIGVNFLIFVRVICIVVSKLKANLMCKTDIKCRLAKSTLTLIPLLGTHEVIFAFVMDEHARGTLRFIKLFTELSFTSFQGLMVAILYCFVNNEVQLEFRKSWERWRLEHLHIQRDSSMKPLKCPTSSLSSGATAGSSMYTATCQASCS
How it was run: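 Peptide-induced β-arrestin-2 recruitment measured by enzyme-fragment complementation luminescence after 90 min at 37 °C plus 60 min detection at RT.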

human Gcg receptor = molecular target: T3, human Gcg receptor (Homo sapiens, UniProt P47871); test: [125I]-Glucagon binding (SPA), human Gcg receptor
T3 construct: expressed in transfected cells; crude membranes
T3 sequence (P47871 26-477): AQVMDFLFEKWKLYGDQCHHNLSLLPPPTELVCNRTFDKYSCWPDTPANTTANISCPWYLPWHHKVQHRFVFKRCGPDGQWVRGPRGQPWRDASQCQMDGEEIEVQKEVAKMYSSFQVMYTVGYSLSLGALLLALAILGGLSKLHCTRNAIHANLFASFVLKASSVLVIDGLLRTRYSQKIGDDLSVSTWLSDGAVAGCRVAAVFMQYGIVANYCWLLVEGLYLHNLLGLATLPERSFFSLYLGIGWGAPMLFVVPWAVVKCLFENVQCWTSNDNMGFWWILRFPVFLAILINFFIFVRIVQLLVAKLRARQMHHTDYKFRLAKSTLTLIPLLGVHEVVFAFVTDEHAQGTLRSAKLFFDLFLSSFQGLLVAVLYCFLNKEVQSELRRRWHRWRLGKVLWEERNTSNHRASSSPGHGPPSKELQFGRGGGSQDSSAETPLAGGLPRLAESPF
How it was run: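 Cell pellets were lysed in hypotonic Tris buffer, pH 7.5, homogenized, and spun at low then high speed to give crude membranes. Ki was derived from the fitted IC50.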

[2] = molecular target: T4, gastric inhibitory peptide receptor (GIPR) (Homo sapiens, UniProt P48546); test: cAMP pharmacological functional assay in presence of casein, hGIPR; format: cell-based
T4 sequence (P48546 22-466): T1 sequence (P48546 22-466)

human GLP-1R [3] = molecular target: T2, human GLP-1R; test: [125I]-GLP-1 binding (SPA), human GLP-1 receptor; design: expressed in transfected cells; crude membranes
How it was run: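 Frozen cell pellets are lysed on ice in hypotonic Tris buffer, pH 7.5, homogenized, and centrifuged to a membrane pellet resuspended at about 1 to 3 mg/mL. Binding is then measured in HEPES-based buffer at pH 7.4, and curves are fitted to give IC50 and Ki.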

[4] = molecular target: human GLP-1 receptor (GLP-1R) (Homo sapiens, UniProt P43220); test: cAMP pharmacological functional assay in presence of casein, hGLP-1R; format: cell-based
Chain of human GLP-1 receptor (GLP-1R) (P43220 24-463): as the sequence (P43220 24-463) above

[5] = read-out: hGIPR Ki, nM (SEM, n)
[6] = CHO-K1 cells, PathHunter β-arrestin-2 recruitment, 0.1% casein, read-out: hGLP1R B-Arrestin2 Rel EC50 uM (SEM, n)
[7] = read-out: hGLcgR Ki, nM (SEM, n)
[8] = HEK293 cells expressing hGIPR, 0.1% Casein, geometric mean, read-out: hGIPR cAMP Rel EC50 nM (SEM, n)
[9] = read-out: hGLP1R Ki, (nM) (SEM, n)
[10] = HEK293 cells expressing hGLP-1R, 0.1% Casein, geometric mean, read-out: hGLP1R cAMP Rel EC50 nM (SEM, n)

| Structure (SMILES) | Ki (human GIP receptor) [nM] | EC50 (human GLP-1R [1]) [µM] | hGLP1R B-Arrestin2 % Top (human GLP-1R [1]) [%] | Ki (human Gcg receptor) [nM] | EC50 [2] [nM] | Ki (human GLP-1R [3]) [nM] | EC50 [4] [nM] | Ki (human GIP receptor; [5]) [nM] | EC50 (human GLP-1R [1]; [6]) [µM] | Ki (human Gcg receptor; [7]) [nM] | EC50 [2, 8] [nM] | Ki (human GLP-1R [3]; [9]) [nM] | EC50 [4, 10] [nM] |
| --- | --- | --- | --- | --- | --- | --- | --- | --- | --- | --- | --- | --- | --- |
| CC[C@H](C)[C@H](NC(=O)[C@H](CC(C)C)NC(=O)[C@H](Cc1ccc(O)cc1)NC(=O)[C@@H](CCC(=O)O)NC(=O)[C@@H](NC(=O)[C@H](Cc1ccccc1)NC(=O)[C@H](CCC(=O)O)NC(=O)C(C)(C)NC(=O)[C@H](CCC(N)=O)NC(=O)[C@H](C)NC(=O)[C@H](CCCCNC(=O)COCCOCCNC(=O)COCCOCCNC(=O)CC[C@H](NC(=O)CCCCCCCCCCCCCCCCCCC(=O)O)C(=O)O)NC(=O)[C@H](CCC(=O)O)NC(=O)[C@H](CC(=O)O)NC(=O)[C@H](CC(C)C)NC(=O)[C@](C)(CC(C)C)NC(=O)[C@@H](NC(=O)[C@H](CO)NC(=O)[C@H](Cc1ccc(O)cc1)NC(=O)[C@H](CC(=O)O)NC(=O)[C@H](CO)NC(=O)[C@@H](NC(=O)[C@](C)(Cc1ccccc1F)NC(=O)[C@@H](NC(=O)CNC(=O)[C@H](CCC(=O)O)NC(=O)C(C)(C)NC(=O)[C@@H](N)Cc1ccc(O)cc1)[C@@H](C)O)[C@@H](C)O)[C@@H](C)CC)[C@@H](C)CC)C(=O)N[C@@H](CCC(=O)O)C(=O)NCC(=O)NCC(=O)N1CCC[C@H]1C(=O)N[C@@H](CO)C(=O)N[C@@H](CO)C(=O)NCC(=O)N[C@@H](C)C(=O)N1CCC[C@H]1C(=O)N1CCC[C@H]1C(=O)N1CCC[C@H]1C(=O)N[C@@H](CO)C(N)=O [Example 1] (H-Y[Aib]EGT[αMePhe(2-F)]TSDYSI[αMeL]LDEK([AEEA-AEEA-γGlu-C20 diacid])AQ[Aib]EFI[dE]YLIEGGPSSGAPPPS-NH2) | 0.0546 | 0.005 | 105 | 207 | 0.0356 | 6.67 | 0.041 | – | – | – | – | – | – |
| CC[C@H](C)[C@H](NC(=O)[C@H](CC(C)C)NC(=O)[C@H](Cc1ccc(O)cc1)NC(=O)[C@H](CCC(=O)O)NC(=O)[C@@H](NC(=O)[C@H](Cc1ccccc1)NC(=O)[C@H](CCC(=O)O)NC(=O)C(C)(C)NC(=O)[C@H](CCC(N)=O)NC(=O)[C@H](C)NC(=O)[C@H](CCCCNC(=O)COCCOCCNC(=O)COCCOCCNC(=O)CC[C@H](NC(=O)CCCCCCCCCCCCCCCCCCC(=O)O)C(=O)O)NC(=O)[C@H](CCCCN)NC(=O)[C@H](CC(=O)O)NC(=O)[C@H](CC(C)C)NC(=O)[C@](C)(CC(C)C)NC(=O)[C@@H](NC(=O)[C@H](CO)NC(=O)[C@H](Cc1ccc(O)cc1)NC(=O)[C@H](CC(=O)O)NC(=O)[C@H](CO)NC(=O)[C@@H](NC(=O)[C@H](Cc1ccccc1)NC(=O)[C@@H](NC(=O)CNC(=O)[C@H](CCC(=O)O)NC(=O)C(C)(C)NC(=O)[C@@H](N)Cc1ccc(O)cc1)[C@@H](C)O)[C@@H](C)O)[C@@H](C)CC)[C@@H](C)CC)C(=O)N[C@@H](C)C(=O)NCC(=O)NCC(=O)N1CCC[C@H]1C(=O)N[C@@H](CO)C(=O)N[C@@H](CO)C(=O)NCC(=O)N[C@@H](C)C(=O)N1CCC[C@H]1C(=O)N1CCC[C@H]1C(=O)N1CCC[C@H]1C(=O)N[C@@H](CO)C(N)=O [Example 289] (H-Y[Aib]EGTFTSDYSI[αMeL]LDKK([AEEA-AEEA-γGlu-C20 diacid])AQ[Aib]EFIEYLIAGGPSSGAPPPS-NH2) | – | – | 51.3 | – | – | – | – | 0.0457 | 0.0124 | > 1050 | 0.0228 | 2.63 | 0.0544 |
| CC[C@H](C)[C@H](NC(=O)[C@H](CC(C)C)NC(=O)[C@H](Cc1ccc(O)cc1)NC(=O)[C@H](CCC(=O)O)NC(=O)[C@@H](NC(=O)[C@H](Cc1ccccc1)NC(=O)[C@H](C)NC(=O)C(C)(C)NC(=O)[C@H](CCC(N)=O)NC(=O)[C@H](C)NC(=O)[C@H](CCCCNC(=O)COCCOCCNC(=O)COCCOCCNC(=O)CC[C@H](NC(=O)CCCCCCCCCCCCCCCCC(=O)O)C(=O)O)NC(=O)[C@H](CCC(=O)O)NC(=O)[C@H](CC(=O)O)NC(=O)[C@H](CC(C)C)NC(=O)[C@](C)(CC(C)C)NC(=O)[C@@H](NC(=O)[C@H](CO)NC(=O)[C@H](Cc1ccc(O)cc1)NC(=O)[C@H](CC(=O)O)NC(=O)[C@H](CO)NC(=O)[C@@H](NC(=O)[C@H](Cc1ccccc1)NC(=O)[C@@H](NC(=O)CNC(=O)[C@H](CCC(=O)O)NC(=O)C(C)(C)NC(=O)[C@@H](N)Cc1ccc(O)cc1)[C@@H](C)O)[C@@H](C)O)[C@@H](C)CC)[C@@H](C)CC)C(=O)N[C@@H](CCC(=O)O)C(=O)NCC(=O)NCC(=O)N1CCC[C@H]1C(=O)N[C@@H](CO)C(=O)N[C@@H](CO)C(=O)NCC(N)=O [Example 303] (H-Y[Aib]EGTFTSDYSI[αMeL]LDEK([AEEA-AEEA-γGlu-C18 diacid])AQ[Aib]AFIEYLIEGGPSSG-NH2) | – | – | 47.7 | – | – | – | – | 0.058 | 0.0179 | 502 | 0.0254 | 3.69 | 0.104 |
| CC[C@H](C)[C@H](NC(=O)[C@H](CC(C)C)NC(=O)[C@H](Cc1ccc(O)cc1)NC(=O)[C@@H](CCC(=O)O)NC(=O)[C@@H](NC(=O)[C@H](Cc1ccccc1)NC(=O)[C@H](CCC(=O)O)NC(=O)C(C)(C)NC(=O)[C@H](CCC(N)=O)NC(=O)[C@H](C)NC(=O)[C@H](CCCCNC(=O)COCCOCCNC(=O)COCCOCCNC(=O)CC[C@H](NC(=O)CCCCCCCCCCCCCCCCC(=O)O)C(=O)O)NC(=O)[C@H](CCCN)NC(=O)[C@H](CC(=O)O)NC(=O)[C@H](CC(C)C)NC(=O)[C@](C)(CC(C)C)NC(=O)[C@@H](NC(=O)[C@H](CO)NC(=O)[C@H](Cc1ccc(O)cc1)NC(=O)[C@H](CC(=O)O)NC(=O)[C@H](CO)NC(=O)[C@@H](NC(=O)[C@](C)(Cc1ccccc1F)NC(=O)[C@@H](NC(=O)CNC(=O)[C@H](CCC(=O)O)NC(=O)C(C)(C)NC(=O)[C@@H](N)Cc1ccc(O)cc1)[C@@H](C)O)[C@@H](C)O)[C@@H](C)CC)[C@@H](C)CC)C(=O)N[C@@H](CCC(=O)O)C(=O)NCC(=O)NCC(=O)N1CCC[C@H]1C(=O)N[C@@H](CO)C(=O)N[C@@H](CO)C(=O)NCC(=O)N[C@@H](C)C(=O)N1CCC[C@H]1C(=O)N1CCC[C@H]1C(=O)N1CCC[C@H]1C(=O)N[C@@H](CO)C(N)=O [Example 2] (H-Y[Aib]EGT[αMePhe(2-F)]TSDYSI[αMeL]LD[Orn]K([AEEA-AEEA-γGlu-C18 diacid])AQ[Aib]EFI[dE]YLIEGGPSSGAPPPS-NH2; N-terminus assumed) | 0.06 | 0.00882 | 96.1 | 361 | 0.0339 | 2.35 | 0.0441 | – | – | – | – | – | – |
